{"source": "patent US20220364135A1", "about": "“MODIFIED PROPIONIBACTERIUM AND METHODS OF USE” (priority 2019, published 2022)", "key": {"cbiMCbl riboswitch": {"tested_on": "cbiMCbl riboswitch", "assay": "FbFP reporter assay, WT cbiMCbl riboswitch in FbFP-ΔcobA strain", "type": "cell-based, P. UF1", "details": "for FbFP expression with VB12 analogues: various concentrations of analogues", "source_text": "(§1) To generate the cbiMCbl riboswitch-FbFP translational fusion constructs, the 5′ UTR (FIG. 6C) containing the promoter of cobA operon, wild-type cbiMCbl riboswitch and ribosome-binding site was PCR amplified from P. UF1 genome (NCBI Genome database, CP018002) with primers S-cobA-1 and S-cobA 22. The codon-optimized FbFP gene (32) was synthesized (GenScript, Piscataway, N.J.) and PCR amplified using primers S-cobA 33 and S-cobA 4. Overlapping PCR was used to ligate the 5′ UTR and FbFP gene using Primers cobA-1 and S-cobA-4, which was subsequently cloned into plasmid pYMZ between BamHI and XbaI sites. Mutations of the cbiMCbl riboswitch were generated by site-directed mutagenesis or overlapping PCR (Table S1). cbiM, cbiN, cbiO, cobA, and tetR reporters were constructed using similar strategies. All plasmids were verified via Sanger sequencing (Genewiz, South Plainfield, N.J.) and introduced into P. UF1 or ΔcobA P. UF1 by electroporation.\n(§2) FbFP reporter assays: To perform FbFP fluorescence intensity measurement, bacteria were cultivated for three days in triplicate, washed, and resuspended with PBS. The excitation and emission wavelengths of FbFP were set at 452 nm and 495 nm on a microplate reader (BioTek, Winooski, Vt.), respectively (48). FbFP intensity at 495 nm was normalized by corresponding OD600 values for each sample. P. UF1 strain with an empty vector was used as the baseline for calculation of fluorescence intensity."}, "cobA operon [1]": {"tested_on": "cobA operon", "assay": "Western blot of cobA operon gene expression under WT cbiMCbl riboswitch in ΔcobA P. UF1 reporter strains", "type": "cell-based", "details": "for cbiM expression with VB12 analogues: various concentrations of analogues", "source_text": "as §1\nWestern blot: Bacteria were cultivated for three days, and washed three times, followed by lysozyme digestion (10 mg/ml) for 2 hours at 37° C. Cell lysates were separated by 12% SDS-PAGE, transferred to PVDF membranes (Sigma Aldrich, St. Louis, Mo.), and blocked with Odyssey blocking buffer (Li-Cor Biosciences, Lincoln, Nebr.). Subsequently, membranes were incubated with anti-HIS-tag antibody (Thermo Fisher Scientific, Waltham, Mass.), anti-TetR antibody (Takara Bio, Mountain view, CA), anti-CobA serum antibodies, or anti-LspA serum antibodies (Stock in our lab) for 2 h at room temperature in the blocking buffer with 0.02% Tween 20. After washing with TBST (20 mM Tris, 150 mM NaCl and 0.1% Tween 20, pH 7.4), membranes were incubated with IRDye 680RD goat anti-mouse secondary antibody (Li-Cor Biosciences, Lincoln, Nebr.) for 1 hour at room temperature in the blocking buffer with 0.02% Tween 20. After washing with TBS, the proteins were detected using an Odyssey infrared imaging system (Li-Cor Biosciences, Lincoln, Nebr.). LspA was used as an internal control."}, "[2]": {"tested_on": "SL1-deleted riboswitch (ΔSL1)", "assay": "FbFP reporter assay, SL1-deleted riboswitch in FbFP-ΔcobA strain", "type": "cell-based, P. UF1", "source_text": "as §1\nas §2, with “FbFP intensity at 495 nm was normalized by corresponding OD600 values for each sample.” left out"}, "[3]": {"tested_on": "SL1-deleted riboswitch (ΔSL1)", "assay": "Western blot of cbiM expression, SL1-deleted riboswitch in CbiM-ΔcobA strain", "type": "cell-based, P. UF1", "details": "VB12 0-5000 ng/ml", "source_text": "as §1\nWestern blot: Bacteria were cultivated for three days, and washed three times, followed by lysozyme digestion (10 mg/ml) for 2 hours at 37° C. […] After washing with TBS, the proteins were detected using an Odyssey infrared imaging system (Li-Cor Biosciences, Lincoln, Nebr.). […]"}, "5′ UTR of cobA operon": {"tested_on": "5′ UTR of cobA operon", "assay": "FbFP and cbiM reporter expression in FbFP-WT and CbiM-WT strains", "type": "cell-based, P. UF1", "details": "FbFP-WT and CbiM-WT cultures", "source_text": "as §1\n[…] The excitation and emission wavelengths of FbFP were set at 452 nm and 495 nm on a microplate reader (BioTek, Winooski, Vt.), respectively (48). […] P. UF1 strain with an empty vector was used as the baseline for calculation of fluorescence intensity.\n[…] After washing with TBS, the proteins were detected using an Odyssey infrared imaging system (Li-Cor Biosciences, Lincoln, Nebr.). […]"}, "cobA operon [4]": {"tested_on": "cobA operon", "assay": "qRT-PCR of cobA operon transcription", "type": "cell-based", "details": "P. UF1 incubated with various concentrations of VB12", "source_text": "Quantitative RT-PCR: Total RNA was extracted from various bacterial cultures using Trizol reagent (Thermo Fisher Scientific, Waltham, Mass.), and the RNA mixtures were further purified using the Aurum Total RNA Mini Kit (Bio-Rad, Hercules, Calif.). The cDNA was synthesized from total RNA using iScript Advanced cDNA Synthesis Kit (Bio-Rad, Hercules, Calif.). Quantitative real-time was accomplished with SsoAdvanced Universal SYBR Green Supermix (Bio-Rad, Hercules, Calif.) on a CFX96 real-time PCR system (Bio-Rad, Hercules, Calif.) using primers listed in Table 2 above. Results were normalized to those obtained from groL2 gene."}}}
{"compound": "C/C1=C2/[N-][C@H]([C@H](CC(N)=O)[C@@]2(C)CCC(=O)NC[C@@H](C)OP(=O)([O-])O[C@H]2[C@@H](O)[C@@H](n3cnc4cc(C)c(C)cc43)O[C@@H]2CO)[C@]2(C)N=C(/C(C)=C3N=C(/C=C4N=C1[C@@H](CCC(N)=O)C\\4(C)C)[C@@H](CCC(N)=O)[C@]\\3(C)CC(N)=O)[C@@H](CCC(N)=O)[C@]2(C)CC(N)=O.[CH2-][C@H]1O[C@@H](n2cnc3c(N)ncnc32)[C@H](O)[C@@H]1O.[Co]", "note": "[adenosylcobalamin]", "values": [{"measurement": "FbFP expression with VB12 analogues", "setting": "cbiMCbl riboswitch; FbFP-ΔcobA strain", "value": "similarly downregulated"}, {"measurement": "cbiM expression with VB12 analogues", "setting": "cobA operon [1]; CbiM-ΔcobA strain", "value": "similarly downregulated"}]}
{"compound": "C/C1=C2/[N-][C@H]([C@H](CC(N)=O)[C@@]2(C)CCC(=O)NC[C@@H](C)OP(=O)([O-])O[C@H]2[C@@H](O)[C@@H](n3cnc4cc(C)c(C)cc43)O[C@@H]2CO)[C@]2(C)N=C(/C(C)=C3N=C(/C=C4N=C1[C@@H](CCC(N)=O)C\\4(C)C)[C@@H](CCC(N)=O)[C@]\\3(C)CC(N)=O)[C@@H](CCC(N)=O)[C@]2(C)CC(N)=O.[Co+3].[OH-]", "note": "[hydroxocobalamin]", "values": [{"measurement": "FbFP expression with VB12 analogues", "setting": "cbiMCbl riboswitch; FbFP-ΔcobA strain", "value": "similarly downregulated"}, {"measurement": "cbiM expression with VB12 analogues", "setting": "cobA operon [1]; CbiM-ΔcobA strain", "value": "similarly downregulated"}]}
{"compound": "C/C1=C2/[N-][C@H]([C@H](CC(N)=O)[C@@]2(C)CCC(=O)NC[C@H](C)OP(=O)([O-])O[C@H]2[C@@H](O)[C@@H](n3cnc4cc(C)c(C)cc43)O[C@@H]2CO)[C@]2(C)N=C(/C(C)=C3N=C(/C=C4N=C1[C@@H](CCC(N)=O)C\\4(C)C)[C@@H](CCC(N)=O)[C@]\\3(C)CC(N)=O)[C@@H](CCC(N)=O)[C@]2(C)CC(N)=O.[CH3-].[Co+3]", "note": "[methylcobalamin]", "values": [{"measurement": "FbFP expression with VB12 analogues", "setting": "cbiMCbl riboswitch; FbFP-ΔcobA strain", "value": "similarly downregulated"}, {"measurement": "cbiM expression with VB12 analogues", "setting": "cobA operon [1]; CbiM-ΔcobA strain", "value": "similarly downregulated"}]}
{"compound": "Vitamin B12 [VB12]", "values": [{"measurement": "VB12 concentration completely inhibiting expression of downstream genes by cbiMCbl riboswitch", "setting": "cbiMCbl riboswitch", "value": 750, "unit": "µM"}, {"measurement": "VB12 concentration at which expression of FbFP was completely abated", "setting": "cbiMCbl riboswitch; FbFP-ΔcobA strain, WT riboswitch", "value": 500, "unit": "ng/mL"}, {"measurement": "half maximal inhibitory concentration (IC50) of VB12 on FbFP expression", "setting": "cbiMCbl riboswitch; FbFP-ΔcobA strain, WT riboswitch, VB12 0-2500 ng/ml", "value": 0.0752, "unit": "µg/mL"}, {"measurement": "repression of FbFP expression", "setting": "cbiMCbl riboswitch; WT riboswitch, 250 ng/ml VB12", "value": "~10", "unit": "fold"}, {"measurement": "IC50 of VB12 on FbFP expression, SL1-deleted riboswitch", "setting": "[2]; FbFP-ΔcobA strain, ΔSL1 riboswitch, VB12 0-5000 ng/ml", "value": 12.962, "unit": "µg/mL"}, {"measurement": "IC50 with ΔSL1 relative to WT riboswitch", "setting": "[2]; ΔSL1 vs WT riboswitch", "value": 256, "unit": "times"}, {"measurement": "cbiM expression (Western blot, HIS-tag antibody)", "setting": "cobA operon [1]; CbiM-ΔcobA strain, VB12 0-2500 ng/ml", "value": "dose-dependent inhibition"}, {"measurement": "expression of cbiN and cbiO (Western blot)", "setting": "cobA operon [1]; CbiN-ΔcobA and CbiO-ΔcobA cultures, VB12 0-25000 ng/ml", "value": "dampened"}, {"measurement": "cobA expression (Western blot)", "setting": "cobA operon [1]; CobA-ΔcobA strain, VB12 0-25000 ng/ml", "value": "dose-dependent inhibition but to a lesser extent"}, {"measurement": "cbiM expression, ΔSL1 compared to WT riboswitch", "setting": "[3]", "value": "no repression"}, {"measurement": "expression of FbFP and cbiM", "setting": "5′ UTR of cobA operon", "value": "significantly decreased"}, {"measurement": "mRNA levels of cbiM, cbiN, cbiO and cbiQ", "setting": "cobA operon [4]", "value": "significantly repressed"}]}
{"compound": "cyanocobalamin", "values": [{"measurement": "FbFP expression with VB12 analogues", "setting": "cbiMCbl riboswitch; FbFP-ΔcobA strain", "value": "similarly downregulated"}, {"measurement": "cbiM expression with VB12 analogues", "setting": "cobA operon [1]; CbiM-ΔcobA strain", "value": "similarly downregulated"}]}
